How the values were obtained:
HT-29 cancer cell line = test: Cytotoxicity assay, HT-29; type: cell-based, human; details: highest concentration tested 33 µM
[1] = system: MDA-MB-435 cancer cell line; test: Cytotoxicity assay, MDA-MB-435; type: cell-based, human; details: highest concentration tested 33 µM
elastase = test: Protease inhibition assay, elastase; type: biochemical; details: highest concentration tested 13 µM
trypsin = test: Protease inhibition assay, trypsin; type: biochemical; details: highest concentration tested 13 µM
chymotrypsin = test: Protease inhibition assay, chymotrypsin; type: biochemical; details: highest concentration tested 13 µM
Mycobacterium smegmatis = test: Growth inhibition assay, M. smegmatis; type: cell-based; details: highest concentration tested 50 µg/mL
Staphylococcus aureus = test: Growth inhibition assay, S. aureus; type: cell-based; details: highest concentration tested 50 µg/mL
Escherichia coli = test: Growth inhibition assay, E. coli; type: cell-based; details: highest concentration tested 50 µg/mL
Candida albicans = test: Growth inhibition assay, C. albicans; type: cell-based; details: highest concentration tested 50 µg/mL
[2] = system: Mycobacterium tuberculosis; details: highest concentration tested 50 µg/mL

cyclo[L-Val2-L-Ser-L-Ile-L-Asn-L-Val1-L-Phe-L-Pro-] [Microseiramide (1)]
no activity was observed: cytotoxicity (HT-29 cancer cell line) | cytotoxicity [1] | protease inhibition (elastase) | protease inhibition (trypsin) | protease inhibition (chymotrypsin) | growth inhibition (Mycobacterium smegmatis) | growth inhibition (Staphylococcus aureus) | growth inhibition (Escherichia coli) | growth inhibition (Candida albicans) | growth inhibition [2]
